Data on 26 molecules can be found in PubChem BioAssay (NCI).

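48-hour exposure; five concentrations; linearly interpolated endpoints. GI50: concentration for 50% inhibition of growth. TGI: concentration producing complete growth inhibition.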 Bounds are passed on as bounds.

Test systems include RXF-631 renal; DMS 114 small cell lung; DMS 273 small cell lung; DLD-1 colon; SNB-78 CNS; MDA-N; PC-3 prostate; MDA-MB-435; NCI/ADR-RES ovarian.
What all share (test): inhibition of tumour cell growth, NCI panel, 48 h

Regarding `CCOC(=O)c1cc2c3c(c(O)c(OC)c2s1)N(C(=O)c1cc2c4c(c(O)c(OC)c2s1)N(C(C)=O)CC4)CC3`, the TGI with RXF-631 renal, in the experiment on DMS 114 small cell lung, in the experiment with DMS 273 small cell lung, in the experiment on DLD-1 colon and in the experiment with SNB-78 CNS was greater than 100 µM in each case.
`Cn1c2c(c3ccccc31)CCN(CCN1CCN(c3cccc(Cl)c3)CC1)C2=O`: the TGI in the experiment with DMS 114 small cell lung, in the experiment with DMS 273 small cell lung and in the experiment with DLD-1 colon was greater than 100 µM in each case.
Regarding `CSC(=S)N/N=C/c1nccc2ccccc12`, the TGI in the experiment on RXF-631 renal was greater than 82.9 µM; in the experiment with DMS 273 small cell lung it was greater than 21.8 µM; with DLD-1 colon it was 22.4 µM; with SNB-78 CNS, 63.6 µM.
Turning to `CC(C)(Oc1ccc(/C=C/C(=O)c2ccc(Cl)cc2)cc1)C(=O)Nc1c(Cl)cccc1Cl`, the TGI with RXF-631 renal is 45.3 µM; in the experiment on DMS 114 small cell lung, 33.7 µM; with DLD-1 colon it was 29.2 µM.
`CC(C)CCC1(CCN)C(=O)NC(=O)NC1=O`: the TGI in the experiment on MDA-N, in the experiment on PC-3 prostate, in the experiment with MDA-MB-435 and in the experiment with NCI/ADR-RES ovarian was greater than 100 µM each time.
In the case of `O=[N+]([O-])c1ccc(-c2ccc(-c3csc(Nc4ccccc4)n3)o2)cc1`, the TGI is 63.5 µM in the experiment with DMS 114 small cell lung, 49.4 µM with DMS 273 small cell lung, 65.9 µM in the experiment with DLD-1 colon and 38.4 µM in the experiment with SNB-78 CNS.
Take `O=[N+]([O-])c1ccc(Sc2c3ccccc3nc3cc(Cl)ccc23)cc1`: the GI50 in the experiment with RXF-631 renal, with DMS 114 small cell lung and with DLD-1 colon was greater than 100 µM throughout. The TGI was greater than 100 µM with RXF-631 renal, greater than 100 µM with DMS 114 small cell lung, greater than 1 µM in the experiment with DMS 273 small cell lung and greater than 100 µM in the experiment on DLD-1 colon.
Turning to `COc1ccc2[nH]c3c(c2c1)[C@H](C)C[C@@H]1C(=O)N(c2ccccc2)C(=O)[C@H]31`, the TGI was 58.7 µM with RXF-631 renal, greater than 100 µM in the experiment with DMS 114 small cell lung, greater than 100 µM in the experiment with DMS 273 small cell lung and greater than 100 µM in the experiment with DLD-1 colon.
`CN(C)C(=S)/N=c1\ssc(=S)n1Cc1ccncc1`: the TGI with RXF-631 renal is 38.4 µM; with DMS 114 small cell lung it was 7.77 µM; in the experiment on DMS 273 small cell lung, 76.3 µM; in the experiment on DLD-1 colon, 47.4 µM; in the experiment on SNB-78 CNS, greater than 100 µM.
With `N#CNC(N)=Nc1ccc(Cl)cc1`, the TGI with MDA-N, in the experiment with PC-3 prostate, in the experiment on MDA-MB-435 and in the experiment on NCI/ADR-RES ovarian was greater than 100 µM in each case.
With `C[C@H]1CCCC(O)C(O)[C@@H]2C[C@H](O[Si](C)(C)C(C)(C)C)C[C@H]2[C@H](O[Si](C)(C)C(C)(C)C)C(O)C(O)C(=O)O1` (some centres not stated), the GI50 with MDA-N is greater than 100 µM; in the experiment with PC-3 prostate, 46.1 µM; in the experiment with MDA-MB-435, greater than 100 µM; in the experiment on NCI/ADR-RES ovarian, 27.2 µM. The TGI in the experiment on MDA-N, in the experiment on PC-3 prostate, with MDA-MB-435 and in the experiment with NCI/ADR-RES ovarian was greater than 100 µM throughout.
Consider `CCC(=O)Nc1nc2c(ncn2C2OC(COC(=O)CC)C(OC(=O)CC)C2OC(=O)CC)c(=O)[nH]1` (configuration not stated), for which the TGI with DMS 273 small cell lung and in the experiment with SNB-78 CNS was greater than 100 µM in each case.
With `Cc1ccccc1NC(=O)C1C(=O)N(c2ccccc2C)C(=O)/C1=N\NC(N)=S` (configuration not stated), the TGI in the experiment with RXF-631 renal, in the experiment on DMS 273 small cell lung and with DLD-1 colon was greater than 100 µM throughout.
On to `O=C(O)c1ccc(C2C(=O)N[C@@H]3CCC[C@H]23)cc1` (some centres not stated), for which the TGI in the experiment on DMS 114 small cell lung, in the experiment on DMS 273 small cell lung, in the experiment with DLD-1 colon and in the experiment on SNB-78 CNS was greater than 100 µM throughout.
Take `CCOC(=O)NC(=O)c1cn(CCN2CCN(C(=O)CCCCCCCCCCC(=O)N3CCN(CCn4cc(C(=O)NC(=O)OCC)c(=O)[nH]c4=O)CC3)CC2)c(=O)[nH]c1=O`: the TGI in the experiment on DMS 114 small cell lung and with DLD-1 colon was greater than 100 µM each time.
With `CCN(C(=O)/C=C/c1ccco1)c1ccccc1`, the TGI in the experiment with MDA-N, with PC-3 prostate, with MDA-MB-435 and in the experiment on NCI/ADR-RES ovarian was greater than 100 µM each time.
For `CN(C)CCNC(=O)Cn1ccc(=O)c2c([N+](=O)[O-])cccc21`, the TGI in the experiment on MDA-N, in the experiment on PC-3 prostate and with MDA-MB-435 was greater than 100 µM in each case.
On to `C=CC(OCC)(OCC)OCC`, for which the TGI in the experiment with RXF-631 renal was greater than 100 µM; in the experiment with DMS 114 small cell lung it was 31.2 µM; in the experiment on DMS 273 small cell lung, 37.9 µM; in the experiment with DLD-1 colon, greater than 100 µM; in the experiment on SNB-78 CNS, greater than 100 µM.
Turning to `CSc1nnc(COc2ccc(Cl)cc2)o1`, the TGI in the experiment on DMS 114 small cell lung, in the experiment on DMS 273 small cell lung, in the experiment with DLD-1 colon and in the experiment on SNB-78 CNS was greater than 100 µM throughout.
`CCCCN(CCCC)C(=O)/C(CC(=O)c1cccc2ccccc12)=N\NC(=O)c1cc2ccccc2cc1O`: the TGI with RXF-631 renal was 70.5 µM; with DLD-1 colon it was greater than 100 µM; in the experiment with SNB-78 CNS, 99.7 µM.
Regarding `COC(=O)C1(O)CC(=O)CCC1c1ccc(OC)cc1` (configuration not stated), the TGI in the experiment with RXF-631 renal, in the experiment with DMS 114 small cell lung, in the experiment on DMS 273 small cell lung, in the experiment on DLD-1 colon and in the experiment on SNB-78 CNS was greater than 100 µM throughout.
For `CC(=O)N1CCC2(c3ccccc3N(C(C)=O)C2c2ccc(O)cc2)C1C(=O)O` (configuration not stated), the TGI with DMS 114 small cell lung, in the experiment with DMS 273 small cell lung, in the experiment on DLD-1 colon and in the experiment with SNB-78 CNS was greater than 100 µM each time.
For `Cc1nc(C(N)=S)sc1C(=O)/C=C/c1c(O)ccc2ccccc12`, the TGI is greater than 100 µM with RXF-631 renal; 98.1 µM in the experiment with DMS 114 small cell lung; greater than 100 µM in the experiment with DMS 273 small cell lung; greater than 100 µM in the experiment with DLD-1 colon; greater than 100 µM in the experiment on SNB-78 CNS.
Take `CCNC(=O)COc1ccc(Cl)cc1Cl`: the TGI with RXF-631 renal, in the experiment on DMS 114 small cell lung, in the experiment on DMS 273 small cell lung, in the experiment on DLD-1 colon and in the experiment on SNB-78 CNS was greater than 100 µM in each case.
`CC(=O)/C(=C/c1ccccc1F)C(=O)c1ccccc1`: the TGI in the experiment on MDA-N, with PC-3 prostate, with MDA-MB-435 and in the experiment on NCI/ADR-RES ovarian was greater than 100 µM in each case.
As for `O=C(N/N=C/c1cccc(F)c1)c1ccncc1`, the TGI with DMS 114 small cell lung, with DMS 273 small cell lung and in the experiment with DLD-1 colon was greater than 100 µM in each case.
